Experimental data: PubChem BioAssay (NCI)
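Following 48 hours of exposure in 96-well plates, responses at five concentrations were used to interpolate endpoints linearly. The concentration for full growth arrest is given as TGI.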

Key:
Test in all cases: NCI tumour cell line growth inhibition, 48 h
OVCAR-4 ovarian = tested on: OVCAR-4 ovarian
M14 melanoma = tested on: M14 melanoma
OVCAR-8 ovarian = tested on: OVCAR-8 ovarian
SW-620 colon = tested on: SW-620 colon
NCI-H460 lung = tested on: NCI-H460 lung
A498 renal = tested on: A498 renal
COLO 205 colon = tested on: COLO 205 colon
XF 498 CNS = tested on: XF 498 CNS
SK-OV-3 ovarian = tested on: SK-OV-3 ovarian
SK-MEL-2 melanoma = tested on: SK-MEL-2 melanoma
SK-MEL-28 melanoma = tested on: SK-MEL-28 melanoma
SNB-19 CNS = tested on: SNB-19 CNS
U251 CNS = tested on: U251 CNS
LOX IMVI melanoma = tested on: LOX IMVI melanoma
HL-60(TB) leukemia = tested on: HL-60(TB) leukemia
HOP-62 NSCLC = tested on: HOP-62 NSCLC
KM20L2 colon = tested on: KM20L2 colon
M19-MEL melanoma = tested on: M19-MEL melanoma
HOP-92 NSCLC = tested on: HOP-92 NSCLC
K-562 leukemia = tested on: K-562 leukemia
MOLT-4 leukemia = tested on: MOLT-4 leukemia
HCT-15 colon = tested on: HCT-15 colon
TK-10 renal = tested on: TK-10 renal
A549 NSCLC = tested on: A549 NSCLC
CCRF-CEM leukemia = tested on: CCRF-CEM leukemia
NCI-H522 lung = tested on: NCI-H522 lung
HCC-2998 colon = tested on: HCC-2998 colon
SF-268 CNS = tested on: SF-268 CNS
SK-MEL-5 melanoma = tested on: SK-MEL-5 melanoma
786-0 renal = tested on: 786-0 renal
EKVX NSCLC = tested on: EKVX NSCLC
RPMI-8226 leukemia = tested on: RPMI-8226 leukemia
SN12C renal = tested on: SN12C renal
NCI-H226 lung = tested on: NCI-H226 lung
SNB-78 CNS = tested on: SNB-78 CNS
IGROV1 ovarian = tested on: IGROV1 ovarian
DMS 114 small cell lung = tested on: DMS 114 small cell lung
UACC-62 melanoma = tested on: UACC-62 melanoma
UO-31 renal = tested on: UO-31 renal
HCT-116 colon = tested on: HCT-116 colon
RXF 393 renal = tested on: RXF 393 renal
DMS 273 small cell lung = tested on: DMS 273 small cell lung
SF-539 CNS = tested on: SF-539 CNS
NCI-H23 lung = tested on: NCI-H23 lung
HOP-18 NSCLC = tested on: HOP-18 NSCLC
SNB-75 CNS = tested on: SNB-75 CNS
RXF-631 renal = tested on: RXF-631 renal
MALME-3M melanoma = tested on: MALME-3M melanoma
ACHN renal = tested on: ACHN renal
OVCAR-5 ovarian = tested on: OVCAR-5 ovarian
OVCAR-3 ovarian = tested on: OVCAR-3 ovarian
HT29 colon = tested on: HT29 colon
UACC-257 melanoma = tested on: UACC-257 melanoma
LXFL 529 NSCLC = tested on: LXFL 529 NSCLC
SF-295 CNS = tested on: SF-295 CNS
CAKI-1 renal = tested on: CAKI-1 renal
KM12 colon = tested on: KM12 colon
DLD-1 colon = tested on: DLD-1 colon

O=C1N(C2CCCCC2)CC12CCCCC2
TGI (OVCAR-4 ovarian): > 100 µM | TGI (M14 melanoma): > 100 µM | TGI (OVCAR-8 ovarian): > 100 µM | TGI (SW-620 colon): > 100 µM | TGI (NCI-H460 lung): > 100 µM | TGI (A498 renal): > 100 µM | TGI (COLO 205 colon): > 100 µM | TGI (XF 498 CNS): > 100 µM | TGI (SK-OV-3 ovarian): > 100 µM | TGI (SK-MEL-2 melanoma): > 100 µM | TGI (SK-MEL-28 melanoma): > 100 µM | TGI (SNB-19 CNS): > 100 µM | TGI (U251 CNS): > 100 µM | TGI (LOX IMVI melanoma): > 100 µM | TGI (HL-60(TB) leukemia): > 100 µM | TGI (HOP-62 NSCLC): > 100 µM | TGI (KM20L2 colon): > 100 µM | TGI (M19-MEL melanoma): > 100 µM | TGI (HOP-92 NSCLC): > 100 µM | TGI (K-562 leukemia): > 100 µM | TGI (MOLT-4 leukemia): > 100 µM | TGI (HCT-15 colon): > 100 µM | TGI (TK-10 renal): > 100 µM | TGI (A549 NSCLC): > 100 µM | TGI (CCRF-CEM leukemia): > 100 µM | TGI (NCI-H522 lung): > 100 µM | TGI (HCC-2998 colon): > 100 µM | TGI (SF-268 CNS): > 100 µM | TGI (SK-MEL-5 melanoma): > 100 µM | TGI (786-0 renal): > 100 µM | TGI (EKVX NSCLC): > 100 µM | TGI (RPMI-8226 leukemia): > 100 µM | TGI (SN12C renal): > 100 µM | TGI (NCI-H226 lung): > 100 µM | TGI (SNB-78 CNS): > 100 µM | TGI (IGROV1 ovarian): > 100 µM | TGI (DMS 114 small cell lung): > 100 µM | TGI (UACC-62 melanoma): > 100 µM | TGI (UO-31 renal): > 100 µM | TGI (HCT-116 colon): > 100 µM | TGI (RXF 393 renal): > 100 µM | TGI (DMS 273 small cell lung): > 100 µM | TGI (SF-539 CNS): > 100 µM | TGI (NCI-H23 lung): > 100 µM | TGI (HOP-18 NSCLC): > 100 µM | TGI (SNB-75 CNS): > 100 µM | TGI (RXF-631 renal): > 100 µM | TGI (MALME-3M melanoma): > 100 µM | TGI (ACHN renal): > 100 µM

O=C(O)CCC(=O)N1c2ccccc2CC1c1c[nH]c2ccccc12 (stereo unspecified)
TGI (OVCAR-4 ovarian): > 100 µM | TGI (M14 melanoma): > 100 µM | TGI (OVCAR-8 ovarian): > 100 µM | TGI (SW-620 colon): > 100 µM | TGI (NCI-H460 lung): > 100 µM | TGI (A498 renal): > 100 µM | TGI (OVCAR-5 ovarian): > 100 µM | TGI (COLO 205 colon): > 100 µM | TGI (XF 498 CNS): > 100 µM | TGI (OVCAR-3 ovarian): > 100 µM | TGI (SK-OV-3 ovarian): > 100 µM | TGI (SK-MEL-2 melanoma): > 100 µM | TGI (HT29 colon): > 100 µM | TGI (SK-MEL-28 melanoma): > 100 µM | TGI (SNB-19 CNS): > 100 µM | TGI (U251 CNS): > 100 µM | TGI (LOX IMVI melanoma): > 100 µM | TGI (HL-60(TB) leukemia): > 100 µM | TGI (HOP-62 NSCLC): > 100 µM | TGI (KM20L2 colon): > 100 µM | TGI (M19-MEL melanoma): > 100 µM | TGI (HOP-92 NSCLC): > 100 µM | TGI (K-562 leukemia): > 100 µM | TGI (UACC-257 melanoma): > 100 µM | TGI (MOLT-4 leukemia): > 100 µM | TGI (LXFL 529 NSCLC): > 100 µM | TGI (HCT-15 colon): > 100 µM | TGI (TK-10 renal): > 100 µM | TGI (A549 NSCLC): > 100 µM | TGI (CCRF-CEM leukemia): > 100 µM | TGI (SF-295 CNS): > 100 µM | TGI (NCI-H522 lung): > 100 µM | TGI (CAKI-1 renal): > 100 µM | TGI (HCC-2998 colon): > 100 µM | TGI (SF-268 CNS): > 100 µM | TGI (SK-MEL-5 melanoma): > 100 µM | TGI (786-0 renal): > 100 µM | TGI (EKVX NSCLC): > 100 µM | TGI (RPMI-8226 leukemia): > 100 µM | TGI (SN12C renal): > 100 µM | TGI (NCI-H226 lung): > 100 µM | TGI (SNB-78 CNS): > 100 µM | TGI (IGROV1 ovarian): > 100 µM | TGI (DMS 114 small cell lung): > 100 µM | TGI (UACC-62 melanoma): > 100 µM | TGI (UO-31 renal): > 100 µM | TGI (HCT-116 colon): > 100 µM | TGI (RXF 393 renal): > 100 µM | TGI (DMS 273 small cell lung): > 100 µM | TGI (KM12 colon): > 100 µM | TGI (SF-539 CNS): > 100 µM | TGI (NCI-H23 lung): > 100 µM | TGI (HOP-18 NSCLC): > 100 µM | TGI (SNB-75 CNS): > 100 µM | TGI (MALME-3M melanoma): > 100 µM | TGI (ACHN renal): > 100 µM

COc1ccc(/C=N/N=C(\N)NO)cc1O
TGI (OVCAR-4 ovarian): > 100 µM | TGI (SW-620 colon): > 100 µM | TGI (NCI-H460 lung): > 100 µM | TGI (OVCAR-5 ovarian): > 100 µM | TGI (COLO 205 colon): > 100 µM | TGI (SK-OV-3 ovarian): > 100 µM | TGI (SK-MEL-2 melanoma): > 100 µM | TGI (HT29 colon): > 100 µM | TGI (SK-MEL-28 melanoma): > 100 µM | TGI (SNB-19 CNS): > 100 µM | TGI (U251 CNS): > 100 µM | TGI (LOX IMVI melanoma): > 100 µM | TGI (HOP-92 NSCLC): 64.2 µM | TGI (K-562 leukemia): > 100 µM | TGI (MOLT-4 leukemia): > 100 µM | TGI (LXFL 529 NSCLC): > 100 µM | TGI (HCT-15 colon): > 100 µM | TGI (A549 NSCLC): > 100 µM | TGI (CCRF-CEM leukemia): > 100 µM | TGI (CAKI-1 renal): > 100 µM | TGI (HCC-2998 colon): > 100 µM | TGI (SF-268 CNS): > 100 µM | TGI (SK-MEL-5 melanoma): > 100 µM | TGI (786-0 renal): 55.7 µM | TGI (EKVX NSCLC): > 100 µM | TGI (RPMI-8226 leukemia): > 100 µM | TGI (SN12C renal): > 100 µM | TGI (NCI-H226 lung): > 100 µM | TGI (SNB-78 CNS): > 100 µM | TGI (IGROV1 ovarian): > 100 µM | TGI (DMS 114 small cell lung): > 100 µM | TGI (UACC-62 melanoma): > 100 µM | TGI (UO-31 renal): > 100 µM | TGI (HCT-116 colon): > 100 µM | TGI (RXF 393 renal): > 100 µM | TGI (KM12 colon): > 100 µM | TGI (SF-539 CNS): 94.4 µM | TGI (NCI-H23 lung): > 100 µM | TGI (DLD-1 colon): > 100 µM | TGI (HOP-18 NSCLC): > 100 µM | TGI (MALME-3M melanoma): 63.6 µM
